Measured values: US20210077439A1 (priority 2016, published 2021)

Key:
[1] = in vivo; cited from earlier work
skeletal muscle = conditions: in vivo; cited from earlier work
joints (arthritis) = conditions: dog, in vivo
[2] = test system: quadriceps (knee extensor musculature); parameters: species or system New Zealand White rabbits; conditions: rabbit, in vivo
[3] = in vivo; cited from earlier work; remark: listed apart in the source
quadriceps muscle = test system: quadriceps muscle; parameters: species or system New Zealand White rabbits; conditions: rabbit, in vivo

## CC(C)(O)CC(=O)O [HMB-FA]
[1]
  plasma levels of HMB compared with calcium HMB: approximately double
  time to plasma level compared with calcium HMB: about one-quarter the time
Skeletal muscle
  decrease in protein breakdown: −56%
  increase in skeletal muscle protein synthesis: +70%

## [Br-].[K+] [potassium bromide, reference compound]
Joints (arthritis)
  adverse effect of the seizure treatment: severe ataxia

## NCC1(CC(=O)O)CCCCC1 [gabapentin, reference compound]
Joints (arthritis)
  adverse effect of the seizure treatment: severe ataxia

## CC(C)(O)CC(=O)O [HMB, β-hydroxy-β-methylbutyric acid]
[1]
  loss of HMB to urine: 20-50%
Joints (arthritis)
  ataxia, owner-observed, after resuming the HMB regimen: significant improvement
  joint stability and movement, owner-observed outcome: increased joint stability, decreased joint instability, improved balanced movement and stability of skeletal joints
  mobility after resuming the HMB regimen during anti-seizure medication: began standing up without assistance, and was able to climb stairs without significant assistance
[2]
  botox-induced loss of strength in the contralateral musculature: prevented much of the botox-induced loss of strength
[3]
  side effects: no side effects
Quadriceps muscle
  contralateral muscle weights as a percentage of body weight versus botox (p<0.10) and control (p<0.03) groups: larger contralateral musculature
  muscle hypertrophy in the contralateral leg: greatly increased

## CCC1(c2ccccc2)C(=O)NC(=O)NC1=O [phenobarbital, reference compound]
Joints (arthritis)
  adverse effect of the seizure treatment: severe ataxia
